The subject of this test is PMA-differentiated THP-1 cells. Briefly: IL-1β production in PMA-differentiated THP-1 cells stimulated with gramicidin (hTHP-1 assay containing 2% fetal bovine serum; Procedures 1 and 2). In kind it is cell-based, human. The note with it: 2% fetal bovine serum. The essentials:
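Secreted IL-1β, read by HTRF, after gramicidin challenge (5 μM, 2 h) of THP-1 cells differentiated with PMA (20 ng/ml, 16-18 h) and plated at 50,000 cells/well in 2% FBS medium. Compounds, 0.0017-100 μM final with 0.37% DMSO, were added 1 h before stimulation.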

[1] abbreviates: Table B3, hTHP-1 assay, class symbols, read-out: IC50.
Setting [2] is: Homo sapiens, THP-1, Table B3, hTHP-1 assay, class symbols, read-out: IC50.
Setting [3] is: Homo sapiens, THP-1, Table B4, class symbols, read-out: hTHP-1 IC50.
Setting [4] is: Table B2, class symbols, read-out: hTHP-1 IC50.

This note sets out measurements from patent US20230031406A1, “COMPOUNDS AND COMPOSITIONS FOR TREATING CONDITIONS ASSOCIATED WITH NLRP ACTIVITY” (Novartis AG, priority 2018, published 2023).

Read-outs that look alike come from different tables or passages of the source.

What is called IC50 is the point on the concentration scale where inhibition reaches its midpoint.

For `CCc1c(CC(F)(F)F)nc2c(c1NC(=O)N=S(N)(=O)c1sc(C(C)(C)O)cc1F)CCC2` (single isomer, unassigned) [Example 639, (R) or (S)-N′-((3-ethyl-2-(2,2,2-trifluoroethyl)-6,7-dihydro-5H-cyclopenta[b]pyridin-4-yl)carbamoyl)-3-fluoro-5-(2-hydroxypropan-2-yl) thiophene-2-sulfonimidamide], under setting [1], the IC50 was 0.2 to 1 µM.

Consider `Cc1c(C(F)(F)F)nc2c(c1NC(=O)N=S(N)(=O)c1cnn(C(F)F)c1)CCC2` (single isomer, unassigned) [Compound 617a, (R) or (S)-1-(Difluoromethyl)-N′-((3-methyl-2-(trifluoromethyl)-6,7-dihydro-5H-cyclopenta[b]pyridin-4-yl)carbamoyl)-1H-pyrazole-4-sulfonimidamide], for which the IC50 (Homo sapiens, THP-1, Table B2, class symbols, read-out: hTHP-1 IC50) is 5 to 30 µM.

In the case of `CC(C)(O)c1ncc([S@](N)(=O)=NC(=O)Nc2c3c(nc(C(F)(F)F)c2C2CC2)CCC3)s1` [Example 577, (R)—N′-((3-cyclopropyl-2-(trifluoromethyl)-6,7-dihydro-5H-cyclopenta[b]pyridin-4-yl)carbamoyl)-2-(2-hydroxypropan-2-yl)thiazole-5-sulfonimidamide], the IC50 under setting [2] was 1 to 5 µM.

Turning to `CC1CCc2c1nc1c(c2NC(=O)N=S(N)(=O)c2cnc(C(O)CO)s2)CCC1` (stereo not shown) [Example 752, 2-(1,2-Dihydroxyethyl)-N′-((3-methyl-1,2,3,5,6,7-hexahydrodicyclopenta[b,e]pyridin-8-yl)carbamoyl) thiazole-5-sulfonimidamide], the IC50 under setting [3] was 1 to 5 µM.

`CCn1cc(F)c(S(N)(=O)=NC(=O)Nc2c3c(nc(C4CC4)c2C2CC2)CCC3)n1` (single isomer, unassigned) [Example 708, (S) or (R)-N′-((2,3-dicyclopropyl-6,7-dihydro-5H-cyclopenta[b]pyridin-4-yl)carbamoyl)-1-ethyl-4-fluoro-1H-pyrazole-3-sulfonimidamide]: the IC50 under setting [1] was in the range of 5 to 30 µM.

In the case of `CCc1c(C(F)(F)F)nc2c(c1NC(=O)N=S(N)(=O)c1cnc(C(C)(C)O)s1)CCC2` (single isomer, unassigned) [Compound 610b, (S) or (R)-N′-((3-ethyl-2-(trifluoromethyl)-6,7-dihydro-5H-cyclopenta[b]pyridin-4-yl)carbamoyl)-2-(2-hydroxypropan-2-yl)thiazole-5-sulfonimidamide], under setting [4], the half-maximal inhibitory concentration (IC50) was 5 to 30 µM.

Take `Cc1c(C(F)(F)F)nc2c(c1NC(=O)N=S(N)(=O)c1cnn3c1OCCC3)CCC2` (single isomer, unassigned) [Example 657, (R) or (S)-N′-((3-((3-2-(trifluoromethyl)-6,7-dihydro-5H-cyclopenta[b]pyridin-4-yl)carbamoyl)-6,7-dihydro-5H-pyrazolo[5,1-b][1,3]oxazine-3-sulfonimidamide]: under setting [2], the concentration for half-maximal inhibition (IC50) was 1 to 5 µM.

In the case of `CCc1c(C(F)(F)F)nc2c(c1NC(=O)N=S(N)(=O)c1sc(C(C)(C)O)cc1F)CCC2` (single isomer, unassigned) [Compound 611b, (R) or (S)-N′-((3-ethyl-2-(trifluoromethyl)-6,7-dihydro-5H-cyclopenta[b]pyridin-4-yl)carbamoyl)-3-fluoro-5-(2-hydroxypropan-2-yl)thiophene-2-sulfonimidamide], the IC50 under setting [4] is 0.2 to 1 µM.

Turning to `Cc1c(C(F)(F)F)nc(C(F)(F)F)c(C)c1NC(=O)N=S(N)(=O)c1cc(C(C)(C)O)cs1` (stereo not shown) [Example 738, N′-((3,5-dimethyl-2,6-bis(trifluoromethyl)pyridin-4-yl)carbamoyl)-4-(2-hydroxypropan-2-yl)thiophene-2-sulfonimidamide], the IC50 under setting [3] fell in the range of 1 to 5 µM.

As to `Cc1c(C2CC2)nc2c(c1NC(=O)N=S(N)(=O)c1ccn(C(F)F)n1)CCC2` (single isomer, unassigned) [Compound 676a, (S) or (R)-N′-((2-cyclopropyl-3-methyl-6,7-dihydro-5H-cyclopenta[b]pyridin-4-yl)carbamoyl)-1-(difluoromethyl)-1H-pyrazole-3-sulfonimidamide], the half-maximal inhibitory concentration (IC50) (Homo sapiens, THP-1, Table B2, numeric bounds, read-out: hTHP-1 IC50) is above 30 µM.
